Laboratory results from patent US12152035B2, “Androgen receptor binding molecule and use thereof” (Industrial Technology Research Institute, priority 2020, dated 2024).

How the values were obtained:
Format in all cases: cell-based
[1] = system: full-length androgen receptor; experiment: Western blot: degradation of full-length androgen receptor in CWR22RV1 cells; settings: overnight
Procedure: CWR22Rv1 cells were maintained in RPMI medium supplemented with 10% fetal bovine serum and 1% penicillin-streptomycin at 37° C. in a humidified environment with 5% CO2.
CWR22Rv1 (5×10^5 cells) were seeded in each well of a 6-well plate and incubated overnight. Before compound treatment, the medium in the wells was replaced with a new medium. Cells were treated with different concentrations of compound overnight. Subsequently, cells were harvested by adding cold PBS and scraping cells. Cells were lysed according to general procedures and Western blot assays were performed to assess the ability of compounds to degrade full-length androgen receptor or androgen receptor splice variant 7. The cells or cell lysates were kept on ice at all times.
The following reagents were used in this experiment. Phosphate buffered saline (PBS) (Hyclone, SH30028.02), fetal bovine serum (Hyclone, SH30084.23, Lot AC14563276), penicillin-streptomycin solution (Hyclone, SV30010), 0.5% Trypsin-EDTA (Gibco, 15400-054), CST Lysis Buffer (CST-9803), Halt™ Protease and Phosphatase Inhibitor (ThermoFisher, 78442), Coomassie (Bradford) Protein Assay (Coomassie (Bradford) protein assay) (ThermoFisher, 23200), androgen receptor antibody (Cell Siginaling, CST-5153S), GAPDH antibody (Cell Siginaling, CST-5174S), HRP-goat-anti-rabbit (Jackson Immuno Research, 111-035-003), skim milk, SuperSignal West Pico Maximum Sensitivity substrate (ThermoFisher, 34080).
The compound prepared above was analyzed for its ability to degrade full-length androgen receptor and androgen receptor splice variant 7 in CWR22RV1 cells by Western blotting according to the method shown in item B.3-2 above.

CWR22RV1 cells = experiment: Cytotoxicity assay (AlamarBlue, 72 hours); settings: 72 hours treatment, concentration not given
Procedure: (§1) Compound stock solutions of 10 mM were prepared with 100% DMSO and shaken for 10-15 seconds. The compound stock solutions were centrifuged at 12000 rpm (13523 rcf.) for 5 minutes and record the turbidity or precipitation state with a photo snapshot. The compound stock solutions were resuspended by shaking for 10-15 seconds, and serially diluted with 100% DMSO solution to make the compound concentration to 1000 μM, then to 100, 10, and 1 μM, and then 10-fold diluted with medium to 100, 10, 1, 0.1 μM (final 10% DMSO/medium) to complete compound test sample preparation. Compound treatment was performed by adding 10 μL of compound test sample to cells in each well of a 96-well plate (final 1% DMSO/medium).
(§2) Cells (CWR22Rv1 cells or VCaP cells) were cultured in RPMI-1640 medium supplemented with 10% fetal bovine serum, 10,000 U/mL penicillin and 10,000 μg/mL streptomycin. Cells were cultured at 37° C. in a humidified 5% CO2 incubator.
(§3) Cells were seeded in a 96-well plate (1×10^4 cells/well). 10 μL of the above compound test sample was added to each well of the 96-well plate on next day. After 72 hours of compound treatment, 10 μL of AlamaBlue reagent was added to each of 96 wells and incubated for 4 hours. The fluorescence value at Ex/Em=560/590 nm was read with a microplate reader, and the cytotoxicity (%) was calculated.
(§4) According to the above method, the compounds prepared above were subjected to cytotoxicity test with CWR22RV1 cells and VCaP cells.

VCaP cells = experiment: Cytotoxicity assay (AlamarBlue, 72 hours); settings: 72 hours treatment, concentration not given
Procedure: as §1, §2, §3, §4

[2] = compound concentration 0.1 (unit not given)
[3] = compound concentration 1 (unit not given)
[4] = compound concentration 10 (unit not given)

Compound	Degradation ability for full-length androgen receptor (residual rate %) [1, 2]	Degradation ability for full-length androgen receptor (residual rate %) [1, 3]	Degradation ability for full-length androgen receptor (residual rate %) [1, 4]	Cytotoxicity, CWR22RV1 cells (cell viability %) (CWR22RV1 cells)	Cytotoxicity, VCaP cells (cell viability %) (VCaP cells)
Cc1ncsc1-c1ccc(CNC(=O)[C@@H]2C[C@H](O)CN2C(=O)C(NC(=O)CC2O[C@H](CNC(=O)COc3ccc(C4CCN(C5=Nn6c(nnc6C(F)(F)F)CC5)CC4)cc3)[C@@H](O)[C@H]2O)C(C)(C)C)cc1 (stereo partly drawn) [Compound 7, 1-(2-(2-((3R,4S,5R)-3,4-dihydroxy-5-((2-(4-(1-(3-(trifluoromethyl)-7,8-dihydro-[1,2,4]triazolo[4,3-b]pyridazin-6-yl)piperidin-4-yl)phenoxy)acetamido)methyl)tetrahydrofuran-2-yl)acetamido)-3,3-dimethylbutanoyl)-4-hydroxy-N-(4-(4-methylthiazol-5-yl)benzyl)pyrrolidine-2-carboxamide]	− (>80%; −)	− (>80%; −)	− (>80%; −)	− (<80% : −)	
Cc1ncsc1-c1ccc(CNC(=O)[C@@H]2C[C@H](O)CN2C(=O)[C@@H](NC(=O)COCCCOCCNC(=O)COc2ccc(C3CCN(C4=Nn5c(nnc5C(F)(F)F)CC4)CC3)cc2)C(C)(C)C)cc1 [Compound 3, (2S,4S)-1-((S)-2-tert-butyl-4,14-dioxo-15-(4-(1-(3-(trifluoromethyl)-7,8-dihydro-[1,2,4]triazolo[4,3-b]pyridazin-6-yl)piperidin-4-yl)phenoxy)-6,10-dioxa-3,13-diazapentadecane)-4-hydroxy-N-(4-(4-methylthiazol-5-yl)benzyl)pyrrolidine-2-carboxamide]				++ (40-60% : ++)	
Cc1ncsc1-c1ccc(CNC(=O)[C@@H]2C[C@H](O)CN2C(=O)[C@@H](NC(=O)CCOCCOCCN2CCN(c3ccc(C#Cc4ccc(C5CCN(C6=Nn7c(nnc7C(F)(F)F)CC6)CC5)cc4)cn3)CC2)C(C)(C)C)cc1 [Compound 4, (2S,4S)-1-((S)-3,3-dimethyl-2-(3-(2-(2-(4-(5-((4-(1-(3-(trifluoromethyl)-7,8-dihydro-[1,2,4]triazolo[4,3-b]pyridazin-6-yl)piperidin-4-yl)phenyl)ethynyl)pyridin-2-yl)piperazin-1-yl)ethoxy)ethoxy)propanamido)butanoyl)-4-hydroxy-N-(4-(4-methylthiazol-5-yl)benzyl)pyrrolidine-2-carboxamide]				+ (60-80% : +)	
Cc1ncsc1-c1ccc(CNC(=O)[C@@H]2C[C@H](O)CN2C(=O)[C@@H](NC(=O)COCCCCCCCOc2ccc(C3CCN(C4=Nn5c(nnc5C(F)(F)F)CC4)CC3)cc2)C(C)(C)C)cc1 [Compound 23, (2S,4S)-1-((S)-3,3-dimethyl-2-(2-((7-(4-(1-(3-(trifluoromethyl)-7,8-dihydro-[1,2,4]triazolo[4,3-b]pyridazin-6-yl)piperidin-4-yl)phenoxy)heptyl)oxy)acetamido)butanoyl)-4-hydroxy-N-(4-(4-methylthiazol-5-yl)benzyl)pyrrolidine-2-carboxamide]				+++ (<40% : +++)	+++ (<40% : +++)
Cc1ncsc1-c1ccc(CNC(=O)C2CC(O)CN2C(=O)C(NC(=O)CC2O[C@H](COc3ccc(C4CCN(C5=Nn6c(nnc6C(F)(F)F)CC5)CC4)cc3)[C@@H](O)[C@H]2O)C(C)(C)C)cc1 (stereo partly drawn) [Compound 29, 1-(2-(2-((3R,4S,5R)-3,4-dihydroxy-5-((4-(1-(3-(trifluoromethyl)-7,8-dihydro-[1,2,4]triazolo[4,3-b]pyridazin-6-yl)piperidin-4-yl)phenoxy)methyl)tetrahydrofuran-2-yl)acetamido)-3,3-dimethylbutanoyl)-4-hydroxy-N-(4-(4-methylthiazol-5-yl)benzyl)pyrrolidine-2-carboxamide]	+ (60-80%: +)	− (>80%; −)	− (>80%; −)	− (<80% : −)	
Cc1cc([C@H](C(=O)N2C[C@H](O)C[C@H]2C(=O)N[C@@H](CC(=O)NCCOCCCCOc2ccc(C3CCN(C4=Nn5c(nnc5C(F)(F)F)CC4)CC3)cc2)c2ccc(-c3scnc3C)cc2)C(C)C)on1 [Compound 6, (2S,4R)-4-hydroxy-1-((R)-3-methyl-2-(3-methylisoxazol-5-yl)butanoyl)-N—((S)-1-(4-(4-methylthiazol-5-yl)phenyl)-3-oxo-3-(2-(4-(4-(1-(3-(trifluoromethyl)-7,8-dihydro-[1,2,4]triazolo[4,3-b]pyridazin-6-yl)piperidin-4-yl)phenoxy)butoxy)ethylamino)propyl)pyrrolidine-2-carboxamide]				− (<80% : −)	
Cc1ncsc1-c1ccc(CNC(=O)[C@@H]2C[C@H](O)CN2C(=O)[C@@H](NC(=O)c2ccc(C(=O)N3CCC(C#Cc4ccc(C5CCN(C6=Nn7c(nnc7C(F)(F)F)CC6)CC5)cc4)CC3)cc2)C(C)(C)C)cc1 [Compound 33, 1-(3,3-dimethyl-2-(4-(4-((4-(1-(3-(trifluoromethyl)-7,8-dihydro-[1,2,4]triazolo[4,3-b]pyridazin-6-yl)piperidin-4-yl)phenyl)ethynyl)piperidine-1-carbonyl)benzamido)butanoyl)-4-hydroxy-N-(4-(4-methylthiazol-5-yl)benzyl)pyrrolidine-2-carboxamide]				− (<80% : −)	+++ (<40% : +++)
Cc1ncsc1-c1ccc(CNC(=O)[C@@H]2C[C@H](O)CN2C(=O)[C@@H](NC(=O)CCCN2CCC(C#Cc3ccc(C4CCN(C5=Nn6c(nnc6C(F)(F)F)CC5)CC4)cc3)CC2)C(C)(C)C)cc1 [Compound 13, (2S,4S)-1-((S)-3,3-dimethyl-2-(4-(4-((4-(1-(3-(trifluoromethyl)-7,8-dihydro-[1,2,4]triazolo[4,3-b]pyridazin-6-yl)piperidin-4-yl)phenyl)ethynyl)piperidin-1-yl)butanamido)butanoyl)-4-hydroxy-N-(4-(4-methylthiazol-5-yl)benzyl)pyrrolidine-2-carboxamide]				+++ (<40% : +++)	+++ (<40% : +++)
Cc1ncsc1-c1ccc(CNC(=O)[C@@H]2C[C@H](O)CN2C(=O)[C@@H](NC(=O)CCC#Cc2ccc(COc3ccc(C4CCN(C5=Nn6c(nnc6C(F)(F)F)CC5)CC4)cc3)cc2)C(C)(C)C)cc1 [Compound 2, (2S,4S)-1-((S)-3,3-dimethyl-2-(5-(4-((4-(1-(3-(trifluoromethyl)-7,8-dihydro-[1,2,4]triazolo[4,3-b]pyridazin-6-yl)piperidin-4-yl)phenoxy)methyl)phenyl)pent-4-ynamido)butanoyl)-4-hydroxy-N-(4-(4-methylthiazol-5-yl)benzyl)pyrrolidine-2-carboxamide]				+ (60-80% : +)	
Cc1ncsc1-c1ccc(CNC(=O)[C@@H]2C[C@H](O)CN2C(=O)[C@@H](NC(=O)COCCCCOc2ccc(C3CCN(C4=Nn5c(nnc5-c5ccc(C(F)(F)F)cc5)CC4)CC3)cc2)C(C)(C)C)cc1 [Compound 8, (2S,4S)-1-((S)-3,3-dimethyl-2-(2-(4-(4-(1-(3-(4-(trifluoromethyl)phenyl)-7,8-dihydro-[1,2,4]triazolo[4,3-b]pyridazin-6-yl)piperidin-4-yl)phenoxy)butoxy)acetamido)butanoyl)-4-hydroxy-N-(4-(4-methylthiazol-5-yl)benzyl)pyrrolidine-2-carboxamide]	− (>80%; −)	+ (60-80%: +)	+++ (<40%: +++)	+++ (<40% : +++)	
